According to patent publication US11827628B2, “Compositions and methods for inhibition of the JAK pathway” (Rigel Pharmaceuticals, Inc., priority 2005, dated 2023):

How the values were obtained:
[1] = system: IL-4 stimulated expression of CD23 in human Ramos B cells (JAK-1 and JAK-3); assay: Assay for Ramos B-Cell Line Stimulated with IL-4 (CD23 upregulation, FACS); type: cell-based; conditions: Ramos B-cell line stimulated with IL-4; CD23 expression by FACS; read-out: IC50, Example 41
Method in brief: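 Human Ramos B cells in RPMI with 5% serum were pre-incubated with compound or DMSO for 1 h at 37 °C, then stimulated with IL-4 at a final 50 units/mL for 20-24 h. CD23 upregulation was measured by anti-CD23-PE staining and flow cytometry, and IC50 values were calculated.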

[2] = system: Primary human T-cells; assay: Primary Human T-Cell Proliferation Assay Stimulated with IL-2 (CellTiter-Glo); type: cell-based; conditions: primary human T-cell proliferation stimulated with IL-2; read-out: IC50, Example 42
Method in brief: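 Peripheral blood T-cells pre-activated with anti-CD3/anti-CD28 and IL-2 were washed free of IL-2, then cultured with compound plus IL-2 for 72 hours at 37° C, duplicate wells. Viability read as ATP by CellTiter-Glo luminescence; IC50 reported.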

Compound	IC50 [1]	IC50 [2]
Cc1ccc(Nc2ncc(F)c(Nc3ccc(OCC#N)c(Cl)c3)n2)cc1S(N)(=O)=O [Compound I-43, N2-(3-Aminosulfonyl-4-methylphenyl)-N4-(3-chloro-4-cyanomethoxypheny)-5-fluoro-2,4-pyrimidinediamine]	18.3 nM	183 nM
CNS(=O)(=O)c1cc(Nc2ncc(F)c(Nc3ccc(Cc4ccncc4)cc3)n2)ccc1C [III-75, 5-Fluoro-N2-[3-(N-methylaminosulfony)-4-methylphenyl]-5-fluoro-N4-[4-(4-pyridinylmethyl)phenyl]-2,4-pyrimidinediamine]	170 nM	220 nM
Cc1cc(Nc2nc(Nc3cccc(S(N)(=O)=O)c3)ncc2F)cc(C)c1OCC(N)=O [Compound I-93, N4-(4-Aminocarbonylmethoxy-3,5-dimethyl)phenyl-N2-(3-aminosulfonyl)phenyl-5-fluoro-2,4-pyrimidinediamine]	265 nM	1170 nM
Cc1cc(Nc2nc(Nc3ccc(S(N)(=O)=O)cc3)ncc2F)ccc1OC(C)C#N (racemic) [Compound I-60, Racemic N2-(4-Aminosulfonyl)phenyl-N4-[4-(1-cyano)ethoxy-3-methyl]phenyl-5-fluoro-2,4-pyrimidinediamine]	103 nM	2170 nM
CC(C)(C#N)Oc1ccc(Nc2nc(Nc3ccc(S(N)(=O)=O)cc3)ncc2F)cc1 [Compound I-75, N2-(4-Aminosulfonyl)phenyl-N4-[4-(1-cyano-1-methyl)ethoxy]phenyl-5-fluoro-2,4-pyrimidinediamine]	199 nM	3300 nM
COc1cc(Nc2ncc(F)c(Nc3ccc(OC(C)C#N)cc3)n2)ccc1S(N)(=O)=O (racemic) [Compound I-70, Racemic N2-(4-Aminosulfonyl-3-methoxy)phenyl-N4-[4-(1-cyano)ethoxy]phenyl-5-fluoro-2,4-pyrimidinediamine]	61.4 nM	573 nM
